In patent US9365615B2, “Cross-linked peptides containing non-peptide cross-linked structure, method for synthesizing cross-linked peptides, and novel organic compound used in method” (JITSUBO Co., Ltd., priority 2013, dated 2016) one finds half-life data, which are given here for twelve molecules.

Structures are written as SMILES. *1 amine or outer side, *2 acyl side, *3 side chain or, on linkers, in order; H or OH if unused. Where a SMILES comes first, the peptide text is derived from it. Bridges are numbered along the chain shown (N, C = ends). X1 = O=C(C[*:2])[*:1]

One series deals with carboxy peptidase. Description: Resistance to peptidase: decomposition by carboxy peptidase (HPLC). It is filed as in vitro ADME. The conditions noted are these: isolated carboxy peptidase (SIGMA); 1 U/ml enzyme in PBS, 37° C., peptide 0.2 mg/ml; time at which half of the peptide was decomposed; read-out: half period by carboxy peptidase (t1/2). As for the experimental part:
(§1) Resistance to a peptidase of a peptide of the present invention was investigated using a carboxy peptidase and chymotrypsin. Resistance to a peptidase was measured as described below.
A carboxy peptidase purchased from SIGMA was treated with PBS to prepare an enzyme solution of 1 U/ml, which was then kept warm at 37° C. in a water bath. Then, a peptide solution having a concentration adjusted to 5 mg/ml with DMSO: pure water=1:1 mixed solvent was treated with PBS(−) to obtain a concentration of 1 mg/ml, and the enzyme solution and the peptide solution were mixed at 4:1 so as to give a peptide final concentration of 0.2 mg/ml. Thereafter, these were reacted quickly at 37° C. With time, the reaction solution was sampled each in an amount of 0.1 ml, and a reaction stopping solution (25% TFA in acetonitrile, 20 μL) was added to stop the reaction. Samples were analyzed by HPLC, and decomposition of a peptide by the peptidase was measured. Sampling was conducted at 0, 0.5 minutes, 1 minute and 2 minutes, and when decomposition of […] or more was not obtained at 2 minutes, sampling was conducted further at 0.5 hours, 1 hour, 3 hours, additionally, sometimes at 6 hours, and for peptides stable for a long period, sampling was conducted in a range of 24 hours to 168 hours according to demands. Time at which half of the peptide added was decomposed was measured.

The target of a further series is T1, chymotrypsin (Bos taurus, UniProt P00766).
T1 construct: purchased SIGMA
In words: Resistance to peptidase: decomposition by chymotrypsin (HPLC). It is filed as in vitro ADME. The conditions noted are these: isolated chymotrypsin (SIGMA), pH 8; 4 U/ml enzyme in 0.1M Tris-HCl (pH8.0), 37° C., peptide 0.2 mg/ml; time at which half of the peptide was decomposed; read-out: half period by chymotrypsin (t1/2). As for the experimental part:
as §1
Chymotrypsin purchased from SIGMA was treated with 0.1M Tris-HCl (pH8.0) to prepare an enzyme solution of 4 U/ml, which was then kept warm at 37° C. in a water bath. Then, a peptide solution treated with DMSO: pure water=1:1 to obtain a concentration of 5 mg/ml was treated with 0.1M Tris-HCl (pH8.0) to give a concentration of 1 mg/ml, and the enzyme solution and the peptide solution were mixed at 4:1 so as to give a peptide final concentration of 0.2 mg/ml. Thereafter, these were reacted quickly at 37° C. With time, the reaction solution was sampled each in an amount of 0.1 ml, and a reaction stopping solution (25% TFA in acetonitrile, 20 μL) was added to stop the reaction. Samples were analyzed by HPLC, and decomposition of a peptide by chymotrypsin was measured. Sampling was conducted at 0, 0.5 minutes, 1 minute and 2 minutes, and when decomposition of 50% or more was not obtained at 2 minutes, sampling was conducted further at 0.5 hours, 1 hour, 3 hours, and time at which half of the peptide added was decomposed was measured.

As for `CC(=O)N1CCCC[C@H](NC(=O)[C@@H](N)Cc2ccc(O)cc2)C(=O)N[C@@H](Cc2c[nH]c3ccccc23)C(=O)N[C@@H](CO)C(=O)N[C@@H](CCC(N)=O)C(=O)N[C@@H](Cc2ccc(O)cc2)C(=O)N[C@@H](CC(C)C)C(=O)N(CC(=O)N[C@@H](Cc2ccc(O)cc2)C(=O)O)CCCC1` [Bdev2], the half-life at 0.2 mg/ml with carboxy peptidase stood at 18.7 min; at chymotrypsin it was 1.4 min.
The corresponding values for `CC(=O)N[C@@H](Cc1ccc(O)cc1)C(=O)N[C@H]1CCCCN(C(C)=O)CCCCN(CC(=O)N[C@@H](Cc2ccc(O)cc2)C(=O)O)C(=O)[C@H](CC(C)C)NC(=O)[C@H](Cc2ccc(O)cc2)NC(=O)[C@H](CCC(N)=O)NC(=O)[C@H](CO)NC(=O)[C@H](Cc2c[nH]c3ccccc23)NC1=O` [Bdev5] are 3.34 min and 0.39 min.
The corresponding values for `CC(=O)N[C@@H](Cc1ccc(O)cc1)C(=O)N[C@H]1CCCCNCCCCN(CC(=O)N[C@@H](Cc2ccc(O)cc2)C(=O)O)C(=O)[C@H](CC(C)C)NC(=O)[C@H](Cc2ccc(O)cc2)NC(=O)[C@H](CCC(N)=O)NC(=O)[C@H](CO)NC(=O)[C@H](Cc2c[nH]c3ccccc23)NC1=O` [Bdev6] are 2.47 min and 2.09 min.
The corresponding values for `CC(C)C[C@@H]1NC(=O)[C@H](Cc2ccc(O)cc2)NC(=O)[C@H](CCC(N)=O)NC(=O)[C@H](CO)NC(=O)[C@H](Cc2c[nH]c3ccccc23)NC(=O)[C@@H](NC(=O)[C@@H](N)Cc2ccc(O)cc2)CCCCNCCCCN(CC(=O)N[C@@H](Cc2ccc(O)cc2)C(=O)O)C1=O` [Bdev8] are 2.79 min and 1.26 min.
With `CC(=O)N1CCCCN(CC(=O)N[C@@H](Cc2ccc(O)cc2)C(=O)O)C(=O)[C@H](CC(C)C)NC(=O)[C@H](Cc2ccc(O)cc2)NC(=O)[C@H](CCC(N)=O)NC(=O)[C@H](CO)NC(=O)[C@H](Cc2c[nH]c3ccccc23)NC(=O)CN(C(=O)[C@@H](N)Cc2ccc(O)cc2)CCCC1` [Bdev-21], the half-life at 0.2 mg/ml in the series on carboxy peptidase is 14.6 min; at chymotrypsin, 0.95 min.
The like results for `CC(=O)N1CCCC[C@@H](C(=O)N[C@@H](Cc2ccc(O)cc2)C(=O)O)NC(=O)[C@H](CC(C)C)NC(=O)[C@H](Cc2ccc(O)cc2)NC(=O)[C@H](CCC(N)=O)NC(=O)[C@H](CO)NC(=O)[C@H](Cc2c[nH]c3ccccc23)NC(=O)[C@@H](NC(=O)[C@@H](N)Cc2ccc(O)cc2)CCCC1` [Bdev-25] were, in that order, 2.63 min and 1.85 min.
The like results for `CCC(=O)N1CCCC[C@H](NC(=O)[C@@H](N)Cc2ccc(O)cc2)C(=O)N[C@@H](Cc2c[nH]c3ccccc23)C(=O)N[C@@H](CO)C(=O)N[C@@H](CCC(N)=O)C(=O)N[C@@H](Cc2ccc(O)cc2)C(=O)N[C@@H](CC(C)C)C(=O)N(CC(=O)N[C@@H](Cc2ccc(O)cc2)C(=O)O)CCCC1` [Bdev-27] were, in that order, 15 min and 4.37 min.
The corresponding values for `CCCCC(=O)N1CCCC[C@H](NC(=O)[C@@H](N)Cc2ccc(O)cc2)C(=O)N[C@@H](Cc2c[nH]c3ccccc23)C(=O)N[C@@H](CO)C(=O)N[C@@H](CCC(N)=O)C(=O)N[C@@H](Cc2ccc(O)cc2)C(=O)N[C@@H](CC(C)C)C(=O)N(CC(=O)N[C@@H](Cc2ccc(O)cc2)C(=O)O)CCCC1` [Bdev-28] are 21.7 min and 2.9 min.
Regarding `COCCOCCOCCOCCC(=O)N1CCCC[C@H](NC(=O)[C@@H](N)Cc2ccc(O)cc2)C(=O)N[C@@H](Cc2c[nH]c3ccccc23)C(=O)N[C@@H](CO)C(=O)N[C@@H](CCC(N)=O)C(=O)N[C@@H](Cc2ccc(O)cc2)C(=O)N[C@@H](CC(C)C)C(=O)N(CC(=O)N[C@@H](Cc2ccc(O)cc2)C(=O)O)CCCC1` [Bdev-29], the half-life at 0.2 mg/ml with carboxy peptidase worked out at 15.7 min; on chymotrypsin, 3.73 min.
The like results for `COCCOCCOCCOCCOCCOCCOCCOCCC(=O)N1CCCC[C@H](NC(=O)[C@@H](N)Cc2ccc(O)cc2)C(=O)N[C@@H](Cc2c[nH]c3ccccc23)C(=O)N[C@@H](CO)C(=O)N[C@@H](CCC(N)=O)C(=O)N[C@@H](Cc2ccc(O)cc2)C(=O)N[C@@H](CC(C)C)C(=O)N(CC(=O)N[C@@H](Cc2ccc(O)cc2)C(=O)O)CCCC1` [Bdev-30] were, in that order, 19.2 min and 3.66 min.
Consider `CC(C)C[C@@H]1NC(=O)[C@H](Cc2ccc(O)cc2)NC(=O)[C@H](CCC(N)=O)NC(=O)[C@H](CO)NC(=O)[C@H](Cc2c[nH]c3ccccc23)NC(=O)[C@@H](NC(=O)[C@@H](N)Cc2ccc(O)cc2)CCCCNC(=O)CSC[C@@H](C(=O)N[C@@H](Cc2ccc(O)cc2)C(=O)O)NC1=O` [Comp. 1, reference compound] (H-YKWSQYLCY-OH; linker 2-8 via X1), for which the half-life at 0.2 mg/ml with carboxy peptidase stood at 0.72 min; on chymotrypsin, 0.45 min.
In the case of `CC(C)C[C@@H]1NC(=O)[C@H](Cc2ccc(O)cc2)NC(=O)[C@H](CCC(N)=O)NC(=O)[C@H](CO)NC(=O)[C@H](Cc2c[nH]c3ccccc23)NC(=O)[C@@H](NC(=O)[C@@H](N)Cc2ccc(O)cc2)CSSC[C@@H](C(=O)N[C@@H](Cc2ccc(O)cc2)C(=O)O)NC1=O` [STD, reference compound], the half-life at 0.2 mg/ml in the series with carboxy peptidase worked out at 0.45 min; at chymotrypsin it was 0.4 min.
